# From patent US12365692B2, “6-hydroxy-8-oxatricyclo[3.2.1.02,4]octane-2-carboxamide derivatives for inducing chondrogenesis for treating joint damage” (NOVARTIS AG, priority 2018, dated 2025)
# System: ALP in NHAC (normal human articular chondrocytes)
# Experiment: Alkaline Phosphatase (ALP) activity assay: ALP staining and quantitation in NHACs (prevention of chondrocyte hypertrophy)
# Assay type: cell-based
# Details: Chondrocyte, 288 h, human IL-1 beta 10 ng/mL, 12 days; for IC50: Fast Blue RR staining, high content imaging; for Emax: read-out: ALP in NHAC (% Efficacy)
# Method: The compounds of the present invention were evaluated in the Alkaline Phosphatase (ALP) activity assay to determine the ability of the compounds to prevent chondrocyte hypertrophy in normal human articular chondrocytes (NHACs).
# Normal human articular chondrocytes (NHACs) were purchased from PromoCell (Heidelberg, Germany) and grown in Chondrocyte Growth Medium (CGM; Lonza, Walkersville, Md.).
# NHACs were expanded in Chondrocyte Growth Medium (CGM) from Lonza until they reached a 60-80% confluency. To initiate differentiation, 7,500 cells were plated/well with indicated test compound dose in 384-well Cell Carrier Ultra plates (Perkin Elmer) with DMEM (SH30022—HyClone) containing 10% FBS (35-015-CV—Corning), 1% Pen/Strep antibiotics (SV30010—HyClone), and 1% Normocin (50 mg/mL—InvivoGen). Cells with test compounds were incubated at 37° C., 5% CO2 for 5 hours and then added human IL-1 beta (AF-200-1B—Peprotech) to each well at a final concentration of 10 ng/mL and incubated at 37° C., 5% CO2 for 12 days.
# To detect the presence of hypertrophic cells, NHACs were fixed with 4% paraformaldehyde and Hoechst 33342 (Invitrogen) dye for 30 minutes, rinsed in PBS, then stained with Fast Blue RR Salt (F0500—Sigma) with Naphthol AS-MX Phosphate Alkaline Solution, 0.25% (855—Sigma-Aldrich).
# The staining was imaged by fluoresecent microscopy, using the 561 nm wavelength, and/or quantified by high content imaging with the ImageXpress Confocal (Molecular Devices, Sunnyvale, CA). Data analyses were performed with a customized multiwavelength cell-scoring application The activity of the compounds of the present invention in the ALP assay is summarized in Table 2.
SMILES,IC50,Emax
"COc1cc([C@@]23C[C@]2(C(=O)Nc2cc(C(F)(F)F)c(Cl)cn2)[C@H]2C[C@H](O)[C@@H]3O2)ccn1 (racemic) [Example 22, rac-(1R,2R,4S,5R,6S)—N-(5-chloro-4-(trifluoromethyl)pyridin-2-yl)-6-hydroxy-4-(2-methoxypyridin-4-yl)-8-oxatricyclo[3.2.1.02,4]octane-2-carboxamide]",> 30 µM,27%
"COc1cc([C@@]23C[C@]2(C(=O)Nc2cc(C(F)(F)F)cc(C4CC4)n2)[C@H]2C[C@H](O)[C@@H]3O2)ccn1 (racemic) [Example 23, rac-(1R,2R,4S,5R,6S)—N-(6-cyclopropyl-4-(trifluoromethyl)pyridin-2-yl)-6-hydroxy-4-(2-methoxypyridin-4-yl)-8-oxatricyclo[3.2.1.02,4]octane-2-carboxamide]",> 30 µM,4%
"COc1cc([C@@]23C[C@]2(C(=O)Nc2cc(C(F)(F)F)cc(C)n2)[C@H]2C[C@H](O)[C@@H]3O2)ccn1 (racemic) [Example 24, rac-(1R,2R,4S,5R,6S)-6-hydroxy-4-(2-methoxypyridin-4-yl)-N-(6-methyl-4-(trifluoromethyl)pyridin-2-yl)-8-oxatricyclo[3.2.1.02,4]octane-2-carboxamide]",> 30 µM,25%
"CCOc1cc(C(F)(F)F)cc(NC(=O)[C@]23C[C@@]2(c2ccnc(OC)c2)[C@H]2O[C@@H]3C[C@@H]2O)n1 (racemic) [Example 25, rac-(1R,2R,4S,5R,6S)—N-(6-ethoxy-4-(trifluoromethyl)pyridin-2-yl)-6-hydroxy-4-(2-methoxypyridin-4-yl)-8-oxatricyclo[3.2.1.02,4]octane-2-carboxamide]",> 30 µM,0%
"COc1cc([C@@]23C[C@]2(C(=O)Nc2cccc(C(F)(F)F)c2)[C@H]2C[C@H](O)[C@@H]3O2)ccn1 (racemic) [Example 26, rac-(1R,2R,4S,5R,6S)-6-hydroxy-4-(2-methoxypyridin-4-yl)-N-(3-(trifluoromethyl)phenyl)-8-oxatricyclo[3.2.1.02,4]octane-2-carboxamide]",> 30 µM,5%
"COc1cc([C@@]23C[C@]2(C(=O)Nc2cccc(C(F)(F)F)c2C)[C@H]2C[C@H](O)[C@@H]3O2)ccn1 (racemic) [Example 27, rac-(1R,2R,4S,5R,6S)-6-hydroxy-4-(2-methoxypyridin-4-yl)-N-(2-methyl-3-(trifluoromethyl)phenyl)-8-oxatricyclo[3.2.1.02,4]octane-2-carboxamide]",> 30 µM,0%
"COc1cc([C@@]23C[C@]2(C(=O)Nc2ccc(C)c(C(F)(F)F)c2)[C@H]2C[C@H](O)[C@@H]3O2)ccn1 (racemic) [Example 28, rac-(1R,2R,4S,5R,6S)-6-hydroxy-4-(2-methoxypyridin-4-yl)-N-(4-methyl-3-(trifluoromethyl)phenyl)-8-oxatricyclo[3.2.1.02,4]octane-2-carboxamide]",> 30 µM,13%
"COc1cc([C@@]23C[C@]2(C(=O)Nc2cc(C)cc(C(F)(F)F)c2)[C@H]2C[C@H](O)[C@@H]3O2)ccn1 (racemic) [Example 29, rac-(1R,2R,4S,5R,6S)-6-hydroxy-4-(2-methoxypyridin-4-yl)-N-(3-methyl-5-(trifluoromethyl)phenyl)-8-oxatricyclo[3.2.1.02,4]octane-2-carboxamide]",10 µM,74%
"COc1cc([C@@]23C[C@]2(C(=O)Nc2cc(C(F)(F)F)ccc2C)[C@H]2C[C@H](O)[C@@H]3O2)ccn1 (racemic) [Example 30, rac-(1R,2R,4S,5R,6S)-6-hydroxy-4-(2-methoxypyridin-4-yl)-N-(2-methyl-5-(trifluoromethyl)phenyl)-8-oxatricyclo[3.2.1.02,4]octane-2-carboxamide]",> 30 µM,27%
"COc1cc([C@@]23C[C@]2(C(=O)Nc2cccc(C(F)(F)F)c2F)[C@H]2C[C@H](O)[C@@H]3O2)ccn1 (racemic) [Example 31, rac-(1R,2R,4S,5R,6S)—N-(2-fluoro-3-(trifluoromethyl)phenyl)-6-hydroxy-4-(2-methoxypyridin-4-yl)-8-oxatricyclo[3.2.1.02,4]octane-2-carboxamide]",> 30 µM,15%
"COc1cc([C@@]23C[C@]2(C(=O)Nc2ccc(F)c(C(F)(F)F)c2)[C@H]2C[C@H](O)[C@@H]3O2)ccn1 (racemic) [Example 32, rac-(1R,2R,4S,5R,6S)—N-(4-fluoro-3-(trifluoromethyl)phenyl)-6-hydroxy-4-(2-methoxypyridin-4-yl)-8-oxatricyclo[3.2.1.02,4]octane-2-carboxamide]",> 30 µM,4%
"COc1cc([C@@]23C[C@]2(C(=O)Nc2cc(C(F)(F)F)ccc2F)[C@H]2C[C@H](O)[C@@H]3O2)ccn1 (racemic) [Example 33, rac-(1R,2R,4S,5R,6S)—N-(2-fluoro-5-(trifluoromethyl)phenyl)-6-hydroxy-4-(2-methoxypyridin-4-yl)-8-oxatricyclo[3.2.1.02,4]octane-2-carboxamide]",> 30 µM,12%
"COc1cc([C@@]23C[C@]2(C(=O)Nc2ccc(OC)c(C(F)(F)F)c2)[C@H]2C[C@H](O)[C@@H]3O2)ccn1 (racemic) [Example 34, rac-(1R,2R,4S,5R,6S)-6-hydroxy-N-(4-methoxy-3-(trifluoromethyl)phenyl)-4-(2-methoxypyridin-4-yl)-8-oxatricyclo[3.2.1.02,4]octane-2-carboxamide]",> 30 µM,0%
"COc1cc(NC(=O)[C@]23C[C@@]2(c2ccnc(OC)c2)[C@H]2O[C@@H]3C[C@@H]2O)cc(C(F)(F)F)c1 (racemic) [Example 35, rac-(1R,2R,4S,5R,6S)-6-hydroxy-N-(3-methoxy-5-(trifluoromethyl)phenyl)-4-(2-methoxypyridin-4-yl)-8-oxatricyclo[3.2.1.02,4]octane-2-carboxamide]",> 30 µM,0%
"COc1cc([C@@]23C[C@]2(C(=O)Nc2cc(C(F)(F)F)ccc2OC)[C@H]2C[C@H](O)[C@@H]3O2)ccn1 (racemic) [Example 36, rac-(1R,2R,4S,5R,6S)-6-hydroxy-N-(2-methoxy-5-(trifluoromethyl)phenyl)-4-(2-methoxypyridin-4-yl)-8-oxatricyclo[3.2.1.02,4]octane-2-carboxamide]",18 µM,65%
"COc1cc([C@@]23C[C@]2(C(=O)Nc2cc(C(F)(F)F)cc(C(F)(F)F)c2)[C@H]2C[C@H](O)[C@@H]3O2)ccn1 (racemic) [Example 37, rac-(1R,2R,4S,5R,6S)—N-(3,5-bis(trifluoromethyl)phenyl)-6-hydroxy-4-(2-methoxypyridin-4-yl)-8-oxatricyclo[3.2.1.02,4]octane-2-carboxamide]",> 30 µM,0%
"COc1cc([C@@]23C[C@]2(C(=O)Nc2ccc(C#N)c(C(F)(F)F)c2)[C@H]2C[C@H](O)[C@@H]3O2)ccn1 (racemic) [Example 38, rac-(1R,2R,4S,5R,6S)—N-(4-cyano-3-(trifluoromethyl)phenyl)-6-hydroxy-4-(2-methoxypyridin-4-yl)-8-oxatricyclo[3.2.1.02,4]octane-2-carboxamide]",24 µM,71%
"COc1cc([C@@]23C[C@]2(C(=O)Nc2cc(C(F)(F)F)ccc2C#N)[C@H]2C[C@H](O)[C@@H]3O2)ccn1 (racemic) [Example 39, rac-(1R,2R,4S,5R,6S)—N-(2-cyano-5-(trifluoromethyl)phenyl)-6-hydroxy-4-(2-methoxypyridin-4-yl)-8-oxatricyclo[3.2.1.02,4]octane-2-carboxamide]",0.081 µM,92%
"Cn1cc([C@@]23C[C@]2(C(=O)Nc2ccc(C(F)(F)F)c(Cl)c2)[C@H]2C[C@H](O)[C@@H]3O2)c(C(F)(F)F)n1 (racemic) [Example 40, rac-(1R,2R,4S,5R,6S)—N-(3-chloro-4-(trifluoromethyl)phenyl)-6-hydroxy-4-(1-methyl-3-(trifluoromethyl)-1H-pyrazol-4-yl)-8-oxatricyclo[3.2.1.02,4]octane-2-carboxamide]",9.5 µM,91%
"Cn1cc([C@@]23C[C@]2(C(=O)Nc2ccc(C(F)(F)F)c(F)c2)[C@H]2C[C@H](O)[C@@H]3O2)c(C(F)(F)F)n1 (racemic) [Example 41, rac-(1R,2R,4S,5R,6S)-N-(3-fluoro-4-(trifluoromethyl)phenyl)-6-hydroxy-4-(1-methyl-3-(trifluoromethyl)-1H-pyrazol-4-yl)-8-oxatricyclo[3.2.1.02,4]octane-2-carboxamide]",3.1 µM,84%
"Cn1cc([C@@]23C[C@]2(C(=O)Nc2ccc(C(F)(F)F)cc2)[C@H]2C[C@H](O)[C@@H]3O2)c(C(F)(F)F)n1 (racemic) [Example 42, rac-(1R,2R,4S,5R,6S)-6-hydroxy-4-(1-methyl-3-(trifluoromethyl)-1H-pyrazol-4-yl)-N-(4-(trifluoromethyl)phenyl)-8-oxatricyclo[3.2.1.02,4]octane-2-carboxamide]",> 30 µM,46%
